From US9878984B2, “Anti-cancer compounds” (NORTHWESTERN UNIVERSITY, priority 2008, dated 2018)

Experiments:
[1] = biological target: T1, wild type recombinant human NAT2 (NAT2*4) (Homo sapiens, UniProt P11245); assay: NAT2 acetylation assay (mass spectrometry); type: in vitro ADME; conditions: 200 μM compound, 100 μg NAT2*4, 400 μM AcetylCoA, 10 min
T1 construct: made in house; host or cells: E. coli
T1 sequence (P11245 1-290): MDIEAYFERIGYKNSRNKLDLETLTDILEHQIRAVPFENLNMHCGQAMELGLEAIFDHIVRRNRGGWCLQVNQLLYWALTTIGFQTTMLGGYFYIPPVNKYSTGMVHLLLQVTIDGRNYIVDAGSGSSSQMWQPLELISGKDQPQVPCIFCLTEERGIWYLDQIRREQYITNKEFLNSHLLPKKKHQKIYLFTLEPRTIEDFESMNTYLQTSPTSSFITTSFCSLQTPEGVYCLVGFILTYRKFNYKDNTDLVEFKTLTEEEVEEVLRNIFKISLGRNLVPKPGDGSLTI
Description: NAT2 Assay: This assay was performed using a wild type recombinant human NAT2 (NAT2*4) that was purified from E. coli as previously described. The volume of each reaction was 500 μL with 200 μM amonafide, A1, or A2, 100 μg NAT2*4, and 400 μM AcetylCoA (Sigma-Poole, UK). Reactions were run for 0 or 10 min and stopped by addition of 500 μL of 20% (w/v) trichloroacetic acid (TCA-Sigma-Poole, UK) to give a final TCA concentration of […], which precipitates the enzyme. Two control assays, lacking either enzyme or compound, were performed for each compound. The reaction mixtures were prepared for analysis by isolation of the compounds from the reaction matrix by solid-phase extraction. In brief, 100 μL of the reaction mixture was added to 1 mL of 2% acetic acid. The sorbent of an Oasis HLB 30 mg Extraction Cartridge (Waters Chromatography—Milford, Mass.) was conditioned with 1 mL of methanol and 1 mL of water, the prepared sample was applied to the conditioned sorbent, and the sorbent was washed with 1 mL of 5% methanol. Samples were eluted with 200 μL methanol followed by 800 μL of 0.1% formic acid in methanol. The eluant was analyzed by an API 3000 LC-MS/MS system (Applied Biosystems—Foster City, Calif.). Samples were infused at 5 μL/min directly into the TurboIonSpray Source (Applied Biosystems—Foster City, Calif.), which was operated in the positive ionization mode. […]

[2] = tested on: pBR322 plasmid DNA; assay: DNA intercalation assay (topoisomerase I based plasmid DNA unwinding); type: biochemical; conditions: 10, 31.6, and 100 μM, human topoisomerase I
Description: DNA Intercalation Assay: A DNA unwinding assay was performed as previously described with minor modifications. Four Units of recombinant wild type human topoisomerase I (Topogen—Port Orange, Fla.) were incubated with reaction buffer (included with enzyme), ˜0.5 μg of pBR322 plasmid DNA, which is a mixture of form I and form II plasmid DNA, and water added to a final volume of 19 μL. The reactions were incubated at 37° C. for 30 min and then 1 μL of each compound was added to give a final concentration of 10, 31.6, and 100 μM (final solvent concentration of 1% DMSO) and the reaction mixture was incubated at 37° C. for another 30 min. The reaction was stopped by the addition of 5 μL gel loading dye. The samples were immediately loaded onto a 1% agarose gel and electrophoresis was performed at 50 V for 3 h at room temperature. Pictures of the gels were obtained using a Kodak Image Station 440 CF (Kodak—Rochester, N.Y.) equipped with a UV source.
This activity depends on the ability of these compounds to intercalate DNA, which is the proposed mechanism of cytotoxic action of amonafide and its analogs. Therefore, the intercalation of plasmid DNA by A1-A9 was compared with the intercalation by amonafide to determine if they behave similarly. A topoisomerase I (topo I) based plasmid DNA unwinding assay was used to determine the intercalation of each compound [1]. […]

## CN(C)CCN1C(=O)c2cccc3cc(N)cc(c23)C1=O [amonafide, reference compound]
[1]
  N-acetylation by NAT2 (ratio of acetylated to parent compound): extensively acetylated
[1]; listed as Amonafide
  N-acetylation by NAT2 (ratio of acetylated to parent compound): underwent extensive acetylation

## CN(C)CCN1C(=O)c2cccc3c(N)ccc(c23)C1=O [A1, 6-amino-2-[2-(dimethylamino)ethyl]-1H-benz[de]isoquinoline-1,3(2H)-dione]
[2]
  DNA intercalation: intercalated DNA to a lesser extent than amonafide and the other derivatives
